Experimental data taken from publication PMC9311059, “P‐Glycoprotein and Breast Cancer Resistance Protein Transporter Inhibition by Cyclosporine and Quinidine on the Pharmacokinetics of Oral Rimegepant in Healthy Subjects” (Clinical Pharmacology in Drug Development, 2022).
Several values for one entry are separate records, joined by “and”; a condition that tells them apart may be missing. Equal values may be shown once.

Tests used:
[1] = Part 1: pharmacokinetics of rimegepant 75 mg ODT alone or coadministered with cyclosporine 200 mg, 2-way crossover
Protocol: This phase 1, open‐label, randomized, single‐dose, 2‐way crossover, 2‐part, drug‐drug interaction study was conducted at a single center (Syneos Health, Québec, Canada). Subjects were screened within 28 days preceding administration of study medication. In part 1, fasted subjects were randomly assigned to a single dose of rimegepant 75 mg ODT or a single dose of rimegepant 75 mg ODT coadministered with cyclosporine 200 mg (2 × 100‐mg capsules). […] Following the completion of part 1, an interim PK analysis and review of data were performed. Part 2 was to be conducted only if the rimegepant AUC from time 0 to infinity (AUC0‐inf) ratio of geometric means in part 1 was increased by >50% when coadministered with cyclosporine. In part 2, fasted subjects were randomly assigned to a single dose of rimegepant 75 mg ODT or a single dose of rimegepant 75 mg ODT coadministered with quinidine 600 mg (2 × 300‐mg tablets).
In part 1, subjects received 1 of the following treatments under fasting conditions: 1 oral dose of rimegepant 75 mg ODT (Catalent Pharma Solutions, Swindon, UK) or 1 oral dose of rimegepant 75 mg ODT coadministered with cyclosporine 200 mg (Novartis Pharmaceuticals Canada Inc., Dorval, Quebec, Canada). In part 2, subjects received 1 of the following treatments under fasting conditions: 1 oral dose of rimegepant 75 mg ODT alone or 1 oral dose of rimegepant 75 mg ODT coadministered with quinidine 600 mg (Sandoz Inc., West Princeton, New Jersey). In parts 1 and 2, the interval between treatments could not exceed 2 minutes.
For each treatment, subjects were confined from the morning of day −1 until after the 24‐hour postdose blood draw on day 2. Subjects returned for all subsequent blood draws. No food was allowed from at least 10 hours before dosing until at least 4 hours after dosing. Meals were standardized and similar in composition between periods. Except for water given with cyclosporine and quinidine, no fluids were allowed from 1 hour before dosing until 1 hour after dosing. Water was provided ad libitum at all other times. […] When appropriate, subjects were accompanied by a staff member while walking.
In each period, 20 blood samples for PK assessment were collected at the following time points: before dosing; 5, 10, 20, 30, 40, and 50 minutes after dosing; and 1, 1.5, 2, 2.5, 3, 4, 5, 6, 8, 12, 24 (day 2), 48 (day 3), and 72 (day 4) hours after dosing. […] Plasma samples were assayed for rimegepant using ultra‐performance liquid chromatography with tandem mass spectrometry detection (LC‐MS/MS). The quantifiable range was 10 to 5000 ng/mL. Plasma samples containing human ethylenediaminetetraacetic acid (EDTA) K2 plasma as an anticoagulant were processed using automated protein precipitation before LC‐MS/MS analysis. The internal standard was rimegepant‐^13C2d4. The validation was performed using an API 5000 LC/MS/MS system with Analyst software, version 1.6.3 (SCIEX, Framingham, Massachusetts). The pump flow was isocratic, with a flow rate set at 0.600 mL/min. The column was an Acquity UPLC BEH C18, 50×2.1 mm, 1.7 μm (Waters Corporation, Framingham, Massachusetts), which was maintained at a temperature of 60°C and contained Milli‐Q type water/acetonitrile with ammonium acetate and acetic acid. The mass‐to‐charge ratios monitored for rimegepant were 535.4 for the precursor ion and 256.1 for the product ion, whereas for the internal standard, they were 541.4 for the precursor ion and 256 for the product ion. […] Incurred sample reanalysis was carried out on ≈10% of randomly selected samples.
The effects of cyclosporine (part 1) or quinidine (part 2) on the single‐dose PK of rimegepant were evaluated using general linear model procedures in SAS (SAS Institute, Cary, North Carolina).

[2] = test system: organic anion transporting polypeptide 1B3; set-up: method as in ref 7 = [7]; PMID 32058712; doi:10.1021/acs.jmedchem.9b01810; 7 Dubowchik GM , Conway CM , Xin AW . Blocking the CGRP pathway for acute and preventive treatment of migraine: the evolution of success . J Med Chem . 2020; 63 ( 13 ): 6600 ‐ 6623 . 32058712 10.1021; conditions: in vitro; cited from earlier work
[3] = by cyclosporine 200 mg, single dose rimegepant 75 mg ODT, vs rimegepant alone
[4] = coadministration with cyclosporine 200 mg, rimegepant 75 mg
[5] = strong P‐gp inhibitors (cyclosporine, quinidine), parts 1 and 2

In the case of `N[C@@H]1c2cccnc2[C@H](OC(=O)N2CCC(n3c(=O)[nH]c4ncccc43)CC2)CC[C@H]1c1cccc(F)c1F` [Rimegepant], the “increase in rimegepant AUC0‐inf” value [1, 3] is reported as 60.1% and 60%, the “increase in rimegepant Cmax” value [1, 3] is reported as 41% and the “rimegepant AUC0‐inf geometric mean ratio (90% CI) versus rimegepant alone” value [1, 4] is reported as 1.6 (1.49‐1.72). For the same compound, the “rimegepant Cmax geometric mean ratio (90% CI) versus rimegepant alone” value [1, 4] was 1.41 (1.27‐1.57), the Tmax ([1]; human, in vivo, po, 75 mg) was 2 h and the Tmax ([1]; human, plasma, po) was 2.5 h. For the same compound, the Tmax ([1]; human, plasma, po, 75 mg) was 1.99 h, the half-life ([1]; human, plasma, po, 75 mg) was 7.59 h and the AUC ([1]; human, plasma, po, 75 mg, AUC0‐inf, arithmetic mean (percent coefficient of variation), part 1, rimegepant ODT 75 mg alone, single oral dose, N 15) was 4270 ng·h/mL. It also gave an AUC ([1]; human, plasma, po, 75 mg, AUC0‐inf, geometric least squares mean, part 1, rimegepant 75 mg ODT alone, single oral dose, fasted, N = 15) of 4110 ng·h/mL, an AUC ([1]; human, plasma, po, 75 mg, AUC0‐t, arithmetic mean (percent coefficient of variation), part 1, rimegepant ODT 75 mg alone, single oral dose, N 15) of 4250 ng·h/mL and an AUC ([1]; human, plasma, po, 75 mg, AUC0‐t, geometric least squares mean, part 1, rimegepant 75 mg ODT alone, single oral dose, fasted, N = 15) of 4090 ng·h/mL. For the same compound, the Cmax ([1]; human, plasma, po, 75 mg, arithmetic mean (percent coefficient of variation), part 1, rimegepant ODT 75 mg alone, single oral dose, N 15) was 862 ng/mL, the Cmax ([1]; human, plasma, po, 75 mg, geometric least squares mean, part 1, rimegepant 75 mg ODT alone, single oral dose, fasted, N = 15) was 824 ng/mL and the “CL/F, arithmetic mean (percent coefficient of variation)” value ([1]; part 1, rimegepant ODT 75 mg alone, single oral dose, N 15) was 19.26 (31.84) L/h. The “difference in geometric mean t1/2el between treatments” value ([1]; part 1, rimegepant with cyclosporine vs rimegepant alone) was ≤ 5%, the “increase in rimegepant exposure by strong P‐gp inhibitors, lower bound” value [1, 5] was > 50% and the “increase in rimegepant exposure by strong P‐gp inhibitors, upper bound” value [1, 5] was < 2 fold. For the same compound, the “substrate of organic anion transporting polypeptide 1B3” value [2] was “not a substrate”.
